Read-outs that look alike come from different tables or passages of the source.
Target: T1, Syk (Homo sapiens, UniProt P43405)
T1 construct: purchased Carna Biosciences
Assay: Syk HTRF assay
Format: biochemical
Method: Test compounds were prepared at a concentration of 1.5 mM in DMSO followed by 3-fold dilutions in Greiner […] polypropylene plates. A 1:4 dilution of compounds by 8 μL/well transfer from the polypropylene plates to 24 μL/well Assay Buffer in Costar 3710 384 well black plates was then performed. Kinases (13 μL/well) or Assay Buffer only (background controls; 50 mM HEPES pH 7.6, 1 mM DTT, 10 mM MgCl2, 0.01% Triton X100, 0.01% BSA and 0.1 mM EDTA) were added to Costar 3710 384-well black plates for the HTRF assays (Carna Biosciences) and compound was added from the 1:4 dilution plate. Syk start mix (87.5 μM ATP, 80 nM Substrate Peptide (American Peptide Company 332722) was added and the mixture was incubated at room temperature for 1 hour. Syk Stop Solution (120 mM EDTA in dilution buffer) was then added to the Syk HTRF assay plate and incubated at room temperature on a shaker for 2 minutes. Syk Antibody Mix (4.86 μg/mL DyLight 647 Streptavidin (Pierce 21824); 1 μg/mL Lance Eu-Anti-Phosphotyrosine (PerkinElmer AD0069)) was added to the Syk HTRF assay plate and the mixture was further incubated at room temperature for >4 h. Time resolved fluorescence was read in assay plates on a PerkinElmer EnVision. HTRF assays were performed using 320 nm excitation, 60 μs delay, 665 nm and 615 nm emission. Data was expressed by division of 665 nm by 615 nm emissions.

[1] = read-out: Activity Level (Syk HTRF assay IC50)
[2] = IC50 activity level, read-out: Activity Level
[3] = activity levels A-D, read-out: Activity Level (IC50 in the Syk HTRF assay)

Structure (SMILES)	IC50 [2] [nM]	IC50 [3] [nM]	also measured
c1ccc(-c2cccc3nc(Nc4ccc5nn[nH]c5c4)nn23)cc1 [compound 49, N-(5-phenyl-[1,2,4]triazolo[1,5-a]pyridin-2-yl)-1H-benzo[d][1,2,3]triazol-6-amine]			IC50 [1]: 0.005 to 250 nM
Oc1cccc(-c2cccc3nc(Nc4ccc5cn[nH]c5c4)nn23)c1 [compound 27, 3-(2-(1H-indazol-6-ylamino)-[1,2,4]triazolo[1,5-a]pyridin-5-yl)phenol]			IC50 [1]: 0.005 to 250 nM
Cc1cc(Nc2nc3cccc(CC4CCOCC4)n3n2)cc2[nH]nc(C)c12 [Example 548, N-(3,4-dimethyl-1H-indazol-6-yl)-5-((tetrahydro-2H-pyran-4-yl)methyl)-[1,2,4]triazolo[1,5-a]pyridin-2-amine]	0.005 to 250		
Nc1cc(-c2cccc3nc(Nc4ccccc4)nn23)ccn1 [Example 445, 5-(2-aminopyridin-4-yl)-N-phenyl-[1,2,4]triazolo[1,5-a]pyridin-2-amine]	0.005 to 250		
Nc1n[nH]c2cc(Nc3nc4cccc(NC5CCCNC5)n4n3)ccc12 (stereo in doubt) [Example 450, (R)-N^2-(3-amino-1H-indazol-6-yl)-N^5-(piperidin-3-yl)-[1,2,4]triazolo[1,5-a]pyridin-2,5-diamine]	0.005 to 250		
c1ccc(Nc2nc3cccc(N[C@@H]4CCNC4)n3n2)cc1 [Example 474, (R)-N^2-phenyl-N^5-(pyrrolidin-3-yl)-[1,2,4]triazolo[1,5-a]pyridin-2,5-diamine]	500 to 1000		
Nc1noc2ccc(Nc3nc4cccc(-c5ccccc5)n4n3)cc12 [compound 42]			IC50 [1]: 0.005 to 250 nM
O[C@H]1CC[C@@H](Nc2cccc3nc(Nc4ccc(Cl)cc4)nn23)CC1 [Example 353, cis-4-(2-(4-chlorophenylamino)-[1,2,4]triazolo[1,5-a]pyridin-5-ylamino)cyclohexanol]		0.005 to 250	
Cc1n[nH]c2cc(Nc3nc4cccc(NC5COCC5O)n4n3)ccc12 (racemic) [Example 166, (±)-trans-4-(2-(3-methyl-1H-indazol-6-ylamino)-[1,2,4]-triazolo[1,5-a]pyridin-5-ylamino)tetrahydrofuran-3-ol]			IC50 [1]: 0.005 to 250 nM
Cc1noc2cc(Nc3nc4cccc(N[C@H]5CC[C@@H](O)CC5)n4n3)ccc12 [Example 543, cis-4-(2-(3-methylbenzo[d]isoxazol-6-ylamino)-[1,2,4]triazolo[1,5-a]pyridin-5-ylamino)cyclohexanol]	0.005 to 250		
CN1C(=O)Cc2ccc(Nc3nc4cccc(N[C@H]5CC[C@@H](O)CC5)n4n3)cc21 [Example 192, cis-6-(5-(4-hydroxycyclohexylamino)-[1,2,4]triazolo[1,5-a]pyridin-2-ylamino)-1-methylindolin-2-one]			IC50 [1]: 0.005 to 250 nM
Nc1n[nH]c2cc(-c3cccc4nc(Nc5ccccc5)nn34)ccc12 [Example 439, 5-(3-amino-1H-indazol-6-yl)-N-phenyl-[1,2,4]triazolo[1,5-a]pyridin-2-amine]	0.005 to 250		
CN1C(=O)C(C)(C)c2ccc(Nc3nc4cccc(N[C@H]5CC[C@H](O)CC5)n4n3)cc21 (stereo in doubt) [Example 146, trans-6-(5-(4-hydroxycyclohexylamino)-[1,2,4]triazolo[1,5-a]pyridin-2-ylamino)-1,3,3-trimethylindolin-2-one]			IC50 [1]: 0.005 to 250 nM
CC(c1cc[nH]c(=O)c1)c1cccc2nc(Nc3ccc(C(F)(F)F)cc3)nn12 (stereo not shown) [Example 211, 4-(1-(2-(4-(trifluoromethyl)phenylamino)-[1,2,4]triazolo[1,5-a]pyridin-5-yl)ethyl)pyridin-2(1H)-one]		0.005 to 250	
Cc1cc(Nc2nc3cccc(N[C@H]4CC[C@@H](O)CC4)n3n2)cc2[nH]ncc12 [Example 204, cis-4-(2-(4-methyl-1H-indazol-6-ylamino)-[1,2,4]triazolo[1,5-a]pyridin-5-ylamino)cyclohexanol]		0.005 to 250	
N[C@H]1CC[C@H](Nc2cccc3nc(Nc4ccccc4)nn23)CC1 (stereo in doubt) [Example 518, trans-N^5-(4-aminocyclohexyl)-N^2-phenyl-[1,2,4]triazolo[1,5-a]pyridine-2,5-diamine]	500 to 1000		
O=C1Cc2ccc(Nc3nc4cccc(N[C@H]5CC[C@@H](O)CC5)n4n3)cc2N1CCO [Example 185, cis-6-(5-(4-hydroxycyclohexylamino)-[1,2,4]triazolo[1,5-a]pyridin-2-ylamino)-1-(2-hydroxyethyl)indolin-2-one]			IC50 [1]: 250 to 500 nM
Cc1n[nH]c2cc(Nc3nc4cccc(N[C@H]5CCOC5)n4n3)ccc12 [Example 182, (S)-N^2-(3-methyl-1H-indazol-6-yl)-N^5-(tetrahydrofuran-3-yl)-[1,2,4]triazolo[1,5-a]pyridin-2,5-diamine]			IC50 [1]: 250 to 500 nM
CC(C)(O)[C@H]1CC[C@@H](Nc2cccc3nc(Nc4ccc(C(F)(F)F)cc4)nn23)CC1 [Example 385, cis-2-(4-(2-(4-(trifluoromethyl)phenylamino)-[1,2,4]triazolo[1,5-a]pyridin-5-ylamino)cyclohexyl)propan-2-ol]		500 to 1000	

Structure (SMILES)	IC50 [2] [nM]	IC50 [3] [nM]	also measured
Cc1n[nH]c2cc(Nc3nc4cccc(N[C@H]5CCCC5O)n4n3)ccc12 (stereo in doubt) [Example 212, (1S,2S)-2-(2-(3-methyl-1H-indazol-6-ylamino)-[1,2,4]triazolo[1,5-a]pyridin-5-ylamino)cyclopentanol]		0.005 to 250	
O[C@H]1CC[C@@H](Nc2cccc3nc(Nc4ccccc4F)nn23)CC1 [Example 357, cis-4-(2-(2-fluorophenylamino)-[1,2,4]triazolo[1,5-a]pyridin-5-ylamino)cyclohexanol]		1000 to 10000	
c1ccc(-c2cccc3nc(Nc4ccc5c(NC6CCNCC6)n[nH]c5c4)nn23)cc1 [compound 23]			IC50 [1]: 0.005 to 250 nM
N[C@H]1CC[C@@H](Oc2cccc3nc(Nc4ccc(C(F)(F)F)cc4)nn23)CC1 [Example 423, cis-5-(4-aminocyclohexyloxy)-N-(4-(trifluoromethyl)phenyl)-[1,2,4]triazolo[1,5-a]pyridin-2-amine]	500 to 1000		
FC(F)(F)c1ccc(Nc2nc3cccc(Cc4ccncc4)n3n2)cc1 [Example 372, 5-(pyridin-4-ylmethyl)-N-(4-(trifluoromethyl)phenyl)-[1,2,4]triazolo[1,5-a]pyridin-2-amine]		1000 to 10000	
CNC(=O)c1ccc(Nc2nc3cccc(N4CCC(O)C4)n3n2)cc1 (stereo in doubt) [Example 250, (R)-4-(5-(3-hydroxypyrrolidin-1-yl)-[1,2,4]triazolo[1,5-a]pyridin-2-ylamino)-N-methylbenzamide]		500 to 1000	
Oc1ccc(Nc2nc3cccc(N[C@H]4CC[C@@H](O)CC4)n3n2)cn1 [Example 371, cis-5-(5-(4-hydroxycyclohexylamino)-[1,2,4]triazolo[1,5-a]pyridin-2-ylamino)pyridin-2-ol]		1000 to 10000	
Cc1n[nH]c2cc(Nc3nc4cccc(C[C@H]5CC[C@H](O)CC5)n4n3)ccc12 (stereo in doubt) [Example 240, trans-4-((2-(3-methyl-1H-indazol-6-ylamino)-[1,2,4]triazolo[1,5-a]pyridin-5-yl)methyl)cyclohexanol]		0.005 to 250	
COc1cc(-c2cccc3nc(Nc4ccccc4)nn23)ccn1 [Example 521]	500 to 1000		
NCCNc1cc(Nc2nc3cccc(-c4ccccc4)n3n2)ccn1 [compound 39]			IC50 [1]: 250 to 500 nM
CNC(=O)c1ccc(Nc2nc3cccc(NC4CCCC4)n3n2)cc1 [Example 400, 4-(5-(cyclopentylamino)-[1,2,4]triazolo[1,5-a]pyridin-2-ylamino)-N-methylbenzamide]	0.005 to 250		
Nc1n[nH]c2cc(Nc3nc4cccc(N[C@H]5CC[C@@H](O)CC5)n4n3)ccc12 [Example 216, cis-4-(2-(3-amino-1H-indazol-6-ylamino)-[1,2,4]triazolo[1,5-a]pyridin-5-ylamino)cyclohexanol]		0.005 to 250	
O=C(c1ccccc1)c1cccc2nc(Nc3ccccc3)nn12 [Example 509, phenyl(2-(phenylamino)-[1,2,4]triazolo[1,5-a]pyridin-5-yl)methanone]	1000 to 10000		
OCCCOc1cccc2nc(Nc3ccc(C(F)(F)F)cc3)nn12 [Example 304, 3-(2-(4-(trifluoromethyl)phenylamino)-[1,2,4]triazolo[1,5-a]pyridin-5-yloxy)propan-1-ol]		1000 to 10000	
Cc1cc(Nc2nc3cccc(N[C@H]4CC[C@@H](O)CC4)n3n2)c2c(c1)N(C)C(=O)C2 [Example 554, cis-4-(5-(4-hydroxycyclohexylamino)-[1,2,4]triazolo[1,5-a]pyridin-2-ylamino)-1,6-dimethylindolin-2-one]	500 to 1000		
NC(=O)c1cncc(Nc2nc3cccc(N[C@H]4CC[C@@H](O)CC4)n3n2)c1 [Example 369, cis-5-(5-(4-hydroxycyclohexylamino)-[1,2,4]triazolo[1,5-a]pyridin-2-ylamino)nicotinamide]		1000 to 10000	
CN(C)c1cc(-c2cccc3nc(Nc4ccccc4)nn23)ccn1 [Example 446, 5-(2-(dimethylamino)pyridin-4-yl)-N-phenyl-[1,2,4]triazolo[1,5-a]pyridin-2-amine]	250 to 500		
OCC1CN(c2cccc3nc(Nc4ccc(C(F)(F)F)cc4)nn23)C1 [Example 259, (1-(2-(4-(trifluoromethyl)phenylamino)-[1,2,4]triazolo[1,5-a]pyridin-5-yl)azetidin-3-yl)methanol]		0.005 to 250	

Source: patent US8299056B2 (Signal Pharmaceuticals, LLC, priority 2008, dated 2012)
